SMILES strings stand for the structures.

As a reminder, the IC50 is the concentration that gives 50% inhibition.

For this assay, the target named is T1, RET (Homo sapiens, UniProt P07949).
T1 construct: purchased Upstate 14-570MG
T1 sequence (P07949 29-1114): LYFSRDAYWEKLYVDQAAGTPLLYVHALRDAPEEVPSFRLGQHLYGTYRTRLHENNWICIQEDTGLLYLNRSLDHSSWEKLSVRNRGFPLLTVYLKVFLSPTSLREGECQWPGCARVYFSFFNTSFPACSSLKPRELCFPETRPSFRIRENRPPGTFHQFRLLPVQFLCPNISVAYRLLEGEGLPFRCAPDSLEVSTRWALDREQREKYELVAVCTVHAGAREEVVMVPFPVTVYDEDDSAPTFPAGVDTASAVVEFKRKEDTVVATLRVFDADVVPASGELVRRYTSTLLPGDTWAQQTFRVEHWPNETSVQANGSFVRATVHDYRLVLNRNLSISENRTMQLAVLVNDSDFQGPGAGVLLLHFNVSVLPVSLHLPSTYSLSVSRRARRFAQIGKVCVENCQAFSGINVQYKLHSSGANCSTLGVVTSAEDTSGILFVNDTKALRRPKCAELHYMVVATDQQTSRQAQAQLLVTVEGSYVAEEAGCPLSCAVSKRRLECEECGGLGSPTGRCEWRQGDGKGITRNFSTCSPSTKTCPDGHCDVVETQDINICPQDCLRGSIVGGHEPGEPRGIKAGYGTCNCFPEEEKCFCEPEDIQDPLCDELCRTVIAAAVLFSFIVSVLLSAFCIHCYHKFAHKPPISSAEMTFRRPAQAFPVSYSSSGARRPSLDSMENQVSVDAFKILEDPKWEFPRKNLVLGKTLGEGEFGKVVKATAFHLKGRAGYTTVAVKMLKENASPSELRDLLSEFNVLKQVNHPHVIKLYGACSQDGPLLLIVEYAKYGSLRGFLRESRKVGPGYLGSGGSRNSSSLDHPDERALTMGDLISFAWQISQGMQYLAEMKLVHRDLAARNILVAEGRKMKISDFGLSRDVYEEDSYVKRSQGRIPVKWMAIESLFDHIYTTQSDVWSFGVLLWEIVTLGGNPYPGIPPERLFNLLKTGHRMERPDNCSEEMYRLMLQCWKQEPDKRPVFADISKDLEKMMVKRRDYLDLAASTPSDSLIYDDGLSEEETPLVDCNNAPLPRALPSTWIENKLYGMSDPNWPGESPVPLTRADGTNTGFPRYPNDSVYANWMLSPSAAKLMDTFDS
Nature of the assay: Inhibition of RET kinase activity, recombinant RET method (Kinase-Glo). Particulars: RET 2 μg/ml, poly-EY4 substrate, 20 μM ATP, two hours at 30° C. Type of assay: biochemical. The gist of the method:
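Recombinant RET at 2 μg/ml in 20 mM MOPS/NaOH pH 7.0, 1 mM EDTA, 5% glycerol, 0.01% Brij35, 0.1% 2-mercaptoethanol, 1 mg/ml BSA; compounds 10 nM–30 μM final.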
For orientation: Kinase-Glo measures the ATP left after a reaction by luminescence.
On to `CCCOC(=O)c1c[nH]c2c(=O)[nH]c3cc(F)c(S(=O)(=O)N(C)C4CC4)cc3c12` [Compound 187, 8-(Cyclopropyl-methyl-sulfamoyl)-7-fluoro-4-oxo-4,5-dihydro-3H-pyrrolo[2,3-c]quinoline-1-propyl carboxylate], for which the IC50 lay in the range of 100 to 1000 nM. The figure for `CCCOC(=O)c1c[nH]c2c(=O)[nH]c3cc(OC)c(S(=O)(=O)N(C)C4CC4)cc3c12` [Compound 188] is 1000 to 10000 nM.

As to `CCCOC(=O)c1c[nH]c2c(=O)[nH]c3cc(Cl)c(S(=O)(=O)N(C)C)cc3c12` [Compound 189, 7-Chloro-8-dimethylsulfamoyl-4-oxo-4,5-dihydro-3H-pyrrolo[2,3-c]quinoline-1-propyl carboxylate], the IC50 was in the range of 100 to 1000 nM. Then `COC(=O)c1c[nH]c2c(=O)[nH]c3ccc(S(=O)(=O)NN4CCCCC4)cc3c12` [Compound 191, 4-Oxo-8-(piperidin-1-ylsulfamoyl)-4,5-dihydro-3H-pyrrolo[2,3-c]quinoline-1-methyl carboxylate], with 1000 to 10000 nM. Then `COC(=O)c1c[nH]c2c(=O)[nH]c3ccc(S(=O)(=O)NN4CC5CCCC5C4)cc3c12` (stereo not shown) [Compound 192, 8-(Hexahydro-cyclopenta[c]pyrrol-2-ylsulfamoyl)-4-oxo-4,5-dihydro-3H-pyrrolo[2,3-c]quinoline-1-methyl carboxylate], with 1000 to 10000 nM. The figure for `COC(=O)c1c[nH]c2c(=O)[nH]c3ccc(S(=O)(=O)NN4CCN(C)CC4)cc3c12` [Compound 193, 8-(4-Methyl-piperazin-1-ylsulfamoyl)-4-oxo-4,5-dihydro-3H-pyrrolo[2,3-c]quinoline-1-methyl carboxylate] is 1000 to 10000 nM; for `CCOC(=O)c1c[nH]c2c(=O)[nH]c3ccc(S(=O)(=O)Cc4ccncc4)cc3c12` [Compound 195, 4-Oxo-8-(pyridin-4-ylmethanesulfonyl)-4,5-dihydro-3H-pyrrolo[2,3-c]quinoline-1-ethyl carboxylate] it is 100 to 1000 nM. As to `CCOC(=O)c1c[nH]c2c(=O)[nH]c3ccc(S(=O)(=O)Cc4ccccn4)cc3c12` [Compound 196, 4-Oxo-8-(pyridin-2-ylmethanesulfonyl)-4,5-dihydro-3H-pyrrolo[2,3-c]quinoline-1-ethyl carboxylate], the IC50 lay in the range of 100 to 1000 nM. Regarding `CCOC(=O)c1c[nH]c2c(=O)[nH]c3ccc(S(=O)(=O)C4CCCCC4)cc3c12` [Compound 197, 8-Cyclohexanesulfonyl-4-oxo-4,5-dihydro-3H-pyrrolo[2,3-c]quinoline-1-ethyl carboxylate], the IC50 lay within 100 to 1000 nM. The figure for `CCOC(=O)c1c[nH]c2c(=O)[nH]c3ccc([S+]([O-])Cc4ccccc4)cc3c12` (stereo not shown) [Compound 198, 4-Oxo-8-phenylmethanesulfinyl-4,5-dihydro-3H-pyrrolo[2,3-c]quinoline-1-ethyl carboxylate] is 100 to 1000 nM. Then `C#Cc1ccc2[nH]c(=O)c3[nH]cc(C(=O)OCC)c3c2c1` [Compound 199, 8-Ethynyl-4-oxo-4,5-dihydro-3H-pyrrolo[2,3-c]quinoline-1-ethyl carboxylate], with 1000 to 10000 nM; and `CCOC(=O)c1c[nH]c2c(=O)[nH]c3ccc(C#C[Si](C)(C)C)cc3c12` [Compound 200, 4-Oxo-8-trimethylsilanylethynyl-4,5-dihydro-3H-pyrrolo[2,3-c]quinoline-1-ethyl carboxylate], with 1000 to 10000 nM. Then `CCOC(=O)c1c[nH]c2c(=O)[nH]c3ccc(C#Cc4ccccc4)cc3c12` [Compound 201, 4-Oxo-8-phenylethynyl-4,5-dihydro-3H-pyrrolo[2,3-c]quinoline-1-ethyl carboxylate], with 1000 to 10000 nM; and `CCOC(=O)c1c[nH]c2c(=O)[nH]c3ccc(C#Cc4ccccn4)cc3c12` [Compound 202, 4-Oxo-8 pyridin-2-ylethynyl-4,5-dihydro-3H-pyrrolo[2,3-c]quinoline-1-ethyl carboxylate], with 1000 to 10000 nM; and `CCOC(=O)c1c[nH]c2c(=O)[nH]c3ccc(C#CCN(C)C)cc3c12` [Compound 203, 8-(3-Dimethylamino-prop-1-ynyl)-4-oxo-4,5-dihydro-3H-pyrrolo[2,3-c]quinoline-1-ethyl carboxylate], with 100 to 1000 nM.

Regarding `CCOC(=O)c1c[nH]c2c(=O)[nH]c3ccc(C#CC(C)(C)O)cc3c12` [Compound 204, 8-(3-Hydroxy-3-methyl-but-1-ynyl)-4-oxo-4,5-dihydro-3H-pyrrolo[2,3-c]quinoline-1-ethyl carboxylate], the concentration for half-maximal inhibition (IC50) is 100 to 1000 nM. Consider `CCOC(=O)c1c[nH]c2c(=O)[nH]c3ccc(C#CCN4CCOCC4)cc3c12` [Compound 205, 8-(3-Morpholin-4-yl-prop-1-ynyl)-4-oxo-4,5-dihydro-3H-pyrrolo[2,3-c]quinoline-1-ethyl carboxylate], for which the IC50 was in the range of 100 to 1000 nM. Then `CCOC(=O)c1c[nH]c2c(=O)[nH]c3ccc(C#CCN(C)CCC#N)cc3c12` [Compound 206, 8-{3-[(2-Cyano-ethylmethyl-amino]-prop-1-ynyl}-4-oxo-4,5-dihydro-3H-pyrrolo[2,3-c]quinoline-1-ethyl carboxylate], with 100 to 1000 nM; and `CCOC(=O)c1c[nH]c2c(=O)[nH]c3ccc(CCc4ccccc4)cc3c12` [Compound 207, 4-Oxo-8-phenethyl-4,5-dihydro-3H-pyrrolo[2,3-c]quinoline-1-ethyl carboxylate], with 100 to 1000 nM. The figure for `CCOC(=O)c1c[nH]c2c(=O)[nH]c3ccc(CCC(C)(C)O)cc3c12` [Compound 208, 8-(3-Hydroxy-3-methyl-butyl)-4-oxo-4,5-dihydro-3H-pyrrolo[2,3-c]quinoline-1-ethyl carboxylate] is 100 to 1000 nM; for `CCCOC(=O)c1c[nH]c2c(=O)[nH]c3ccc(I)cc3c12` [Compound 210, 8-Iodo-4-oxo-4,5-dihydro-3H-pyrrolo[2,3-c]quinoline-1-propyl carboxylate] it is 100 to 1000 nM.

`O=C(OC1CCCC1)c1c[nH]c2c(=O)[nH]c3ccc(I)cc3c12` [Compound 211, 8-Iodo-4-oxo-4,5-dihydro-3H-pyrrolo[2,3-c]quinoline-1-cyclopentyl carboxylate]: the concentration for half-maximal inhibition (IC50) lay within 1000 to 10000 nM.

For `CC(C)COC(=O)c1c[nH]c2c(=O)[nH]c3ccc(I)cc3c12` [Compound 212, 8-Iodo-4-oxo-4,5-dihydro-3H-pyrrolo[2,3-c]quinoline-1-isobutyl carboxylate], the IC50 is 1000 to 10000 nM. On to `CCOC(=O)c1c[nH]c2c(=O)[nH]c3cc(OC)ccc3c12` [Compound 213, 7-Methoxy-4-oxo-4,5-dihydro-3H-pyrrolo[2,3-c]quinoline-1-ethyl carboxylate], for which the IC50 was in the range of 1000 to 10000 nM. For the compound `CCOC(=O)c1c[nH]c2c(=O)[nH]c3cc(OC)c(I)cc3c12` [Compound 214, 8-Iodo-7-methoxy-4-oxo-4,5-dihydro-3H-pyrrolo[2,3-c]quinoline-1-ethyl carboxylate], the IC50 lay within 1000 to 10000 nM. Turning to `CCOC(=O)c1c[nH]c2c(=O)[nH]c3cc(F)ccc3c12` [Compound 215, 7-Fluoro-4-oxo-4,5-dihydro-3H-pyrrolo[2,3-c]quinoline-1-ethyl carboxylate], the concentration for half-maximal inhibition (IC50) was 1000 to 10000 nM.

`CCOC(=O)c1c[nH]c2c(=O)[nH]c3cc(Cl)ccc3c12` [Compound 216, 7-Chloro-4-oxo-4,5-dihydro-3H-pyrrolo[2,3-c]quinoline-1-ethyl carboxylate]: the 50% inhibitory concentration (IC50) was 1000 to 10000 nM. Take `CCOC(=O)c1c[nH]c2c(=O)[nH]c3ccc(C(=O)/C=C/N(C)C)cc3c12` [Compound 217, 8-(3-Dimethylamino-acryloyl)-4-oxo-4,5-dihydro-3H-pyrrolo[2,3-c]quinoline-1-ethyl carboxylate]: the IC50 was in the range of 100 to 1000 nM.

On to `CCOC(=O)c1c[nH]c2c(=O)[nH]c3ccc(C(=O)CN4CCOCC4)cc3c12` [Compound 218, 8-(2-Morpholin-4-yl-acetyl)-4-oxo-4,5-dihydro-3H-pyrrolo[2,3-c]quinoline-ethyl carboxylate], for which the IC50 lay within 1000 to 10000 nM.

As to `CCOC(=O)c1c[nH]c2c(=O)[nH]c3ccc(Sc4ccccc4)cc3c12` [Compound 220, 4-Oxo-8-phenylsulfanyl-4,5-dihydro-3H-pyrrolo[2,3-c]quinoline-1-ethyl carboxylate], the IC50 was in the range of 100 to 1000 nM. The figure for `CCOC(=O)c1c[nH]c2c(=O)[nH]c3ccc(Sc4ccc(NC(C)=O)cc4)cc3c12` [Compound 223, 8-(4-Acetylaminophenylsulfanyl)-4-oxo-4,5-dihydro-3H-pyrrolo[2,3-c]quinoline-1-ethyl carboxylate] is 100 to 1000 nM.

In the case of `CCOC(=O)c1c[nH]c2c(=O)[nH]c3ccc(Sc4cccc(N)c4)cc3c12` [Compound 224, 8-(3-Aminophenylsulfanyl)-4-oxo-4,5-dihydro-3H-pyrrolo[2,3-c]quinoline-1-ethyl carboxylate], the IC50 lay within 100 to 1000 nM. Regarding `CCOC(=O)c1c[nH]c2c(=O)[nH]c3ccc(Sc4cccc(NC(C)=O)c4)cc3c12` [Compound 225, 8-(3-Acetylaminophenylsulfanyl)-4-oxo-4,5-dihydro-3H-pyrrolo[2,3-c]quinoline-1-ethyl carboxylate], the IC50 lay in the range of 100 to 1000 nM. As to `CCOC(=O)c1c[nH]c2c(=O)[nH]c3ccc(-c4ccccc4)cc3c12` [Compound 228, 4-Oxo-8-phenyl-4,5-dihydro-3H-pyrrolo[2,3-c]quinoline-1-ethyl carboxylate], the IC50 was in the range of 1000 to 10000 nM.

Regarding `CCOC(=O)c1c[nH]c2c(=O)[nH]c3ccc(-c4ccccc4Cl)cc3c12` [Compound 229, 8-(2-Chlorophenyl)-4-oxo-4,5-dihydro-3H-pyrrolo[2,3-c]quinoline-1-ethyl carboxylate], the IC50 lay in the range of 100 to 1000 nM.

As for `CCOC(=O)c1c[nH]c2c(=O)[nH]c3ccc(-c4ccccc4NC(=O)OC(C)(C)C)cc3c12` [Compound 230, 8-(2-tert-Butoxycarbonylaminophenyl)-4-oxo-4,5-dihydro-3H-pyrrolo[2,3-c]quinoline-1-ethyl carboxylate], the IC50 is 10000 to 100000 nM. The figure for `CCOC(=O)c1c[nH]c2c(=O)[nH]c3ccc(-c4ccccc4N)cc3c12` [Compound 231, 8-(2-Aminophenyl)-4-oxo-4,5-dihydro-3H-pyrrolo[2,3-c]quinoline-1-ethyl carboxylate] is 100 to 1000 nM.
